Test results as given in patent US20140315933A1, “CHEMICAL COMPOUNDS” (Pfizer Limited, priority 2013, published 2014).
Structures can show the parent of a compound that is named as a salt.

target: T1, URAT-1 transporter (Homo sapiens, UniProt Q96S37); assay: URAT-1 inhibitor activity: [14C]-uric acid uptake into CHO-URAT1(L)GFP#8 (CHO#8) cells, scintillation proximity; type: cell-based; conditions: not given
T1 construct: expressed in transfected cells
Text: The nucleotide sequence for the long isoform of URAT1 (NM_144585) was C-terminally fused to that of enhanced green fluorescent protein (eGFP) (hereinafter referred to as URAT1(L)GFP). The combined sequence was codon-optimised and custom synthesized. The synthesized sequence was generated in pDONR221 Gateway entry vector (Invitrogen Life Technologies) prior to cloning in pLenti6.3/V5 Gateway destination vector (Invitrogen Life Technologies).
Lentiviral particles were generated according to ViraPower HiPerform expression system procedure (Invitrogen Life Technologies) and used to transduce CHO cells. Blasticidin selection enabled the generation of a stable clonal pool of cells, confirmed by expression of GFP and V5 epitope. The clonal pools were sorted using fluorescence-activated cell sorting (FACS) on the basis of GFP expression with the gating set at the top 50% of expression into single cells which were subsequently expanded to generate clonal lines. […] This cell line was used for all screening activities and is referred to as CHO-URAT1(L)GFP#8 or CHO#8.
The potency of the compounds of formula (I) as inhibitors of the URAT-1 transporter was determined as follows.
CHO#8 cells were cultured in cell line maintenance flasks in medium consisting of Dulbecco's modified Eagle medium (DMEM) with high glucose and sodium pyruvate (4.5 g of glucose per litre, Invitrogen Life Technologies), supplemented with heat-inactivated foetal bovine serum (FBC, 10% v/v), 1×NEAA (non-essential amino acids) and blasticidin (10 μg/ml). Cultures were grown in 175 cm^2 tissue culture flasks in a humidified incubator at approximately 37° C. in approximately 95% air/5% CO2. Near confluent CHO#8 cell cultures were harvested by trypsinisation, re-suspended in culture medium and the process was repeated once or twice weekly to provide sufficient cells for use.
Assay ready flasks were generated by the same method, except the cells were not cultured in blasticidin.
Assay ready frozen cells were generated by freezing 40,000,000 cells in 1 ml of FBS (without blasticidin) containing 10% DMSO per vial. One vial was sufficient for 5 assay plates. Each vial was thawed rapidly to 37° C., washed and re-suspended in pre-warmed culture medium for seeding onto assay plates.
CHO#8 cells were seeded onto Cytostar™ 96-well plates at a density of […]. The cells were cultured for 1 day at approximately 37° C. in a humidified incubator containing approximately 5% CO2 in air. After approximately 24 hours culture, cells were used for uptake experiments.
On the day of assay, culture medium was removed from the wells and the cells were washed once with 50 μL of chloride-containing buffer (136.7 mM NaCl, 5.36 mM KCl, 0.952 mM CaCl2, 0.441 mM KH2PO4, 0.812 mM MgSO4, 5.6 mM D-glucose, 0.383 mM Na2HPO4.2H2O, 10 mM HEPES, pH 7.4 with NaOH). The cells were pre-incubated with another 50 μL of chloride-containing buffer for one hour at approximately 37° C. in a humidified incubator containing approximately 5% CO2 in air.
Assay compound plates were prepared by diluting the compounds of formula (I) with chloride-free buffer (125 mM Na-gluconate, 4.8 mM K-gluconate, 1.3 mM Ca-gluconate, 1.2 mM KH2PO4, 1.2 mM MgSO4, 5.6 mM D-glucose, 25 mM HEPES, pH 7.4 with NaOH) in 100% DMSO to a final concentration of 1% DMSO. [^14C]-Uric Uric acid working stock was made by addition of radiolabeled compound to a final concentration of 120 nM in chloride-free buffer. In all wells, the final assay concentration of solvent (DMSO) was 0.25%; the final assay concentration of [^14C]-uric acid was 30 nM in chloride-free buffer and the final compound of formula (I) concentrations ranged from 0 to 10 μM.
After pre-incubation, cells were washed with 50 μL of chloride-free buffer and another 50 μL of chloride-free buffer was added. […]

| Compound | IC50 [µM] |
| --- | --- |
| Cn1ccc(NS(=O)(=O)c2ccc(Oc3ccc(C#N)c(Cl)c3)c(C#N)c2)n1 [Example 4, 4-(3-chloro-4-cyanophenoxy)-3-cyano-N-(1-methyl-1H-pyrazol-3-yl)benzenesulfonamide diethylamine salt] | 3.36 |
| Cc1cc(NS(=O)(=O)c2ccc(Oc3ccc(C#N)c(Cl)c3)c(C#N)c2)no1 [Example 5, 4-(3-chloro-4-cyanophenoxy)-3-cyano-N-(5-methyl-1,2-oxazol-3-yl)benzenesulfonamide diethylamine salt] | > 10 |
| O=S(=O)(Nc1nccs1)c1ccc(Oc2ccc(C(F)(F)F)cc2C(F)(F)F)c(F)c1 [Example 6, 4-[2,4-bis(trifluoromethyl)phenoxy]-3-fluoro-N-(1,3-thiazol-2-yl)benzenesulfonamide] | > 10 |
| COc1cc(Cl)c(Cl)cc1Oc1ccc(S(=O)(=O)Nc2ncns2)cc1C#N [Example 9, 3-cyano-4-(4,5-dichloro-2-methoxyphenoxy)-N-(1,2,4-thiadiazol-5-yl)benzenesulfonamide] | > 2.81 |
| COc1ccc(Cl)cc1Oc1ccc(S(=O)(=O)Nc2ncns2)cc1C#N [Example 10, 4-(5-chloro-2-methoxyphenoxy)-3-cyano-N-(1,2,4-thiadiazol-5-yl)benzenesulfonamide diethylamine salt] | > 5.76 |
| CC(C)c1cccc(Oc2ccc(S(=O)(=O)Nc3ncns3)cc2C#N)c1 [Example 14, 3-cyano-4-[3-(propan-2-yl)phenoxy]-N-(1,2,4-thiadiazol-5-yl)benzenesulfonamide diethylamine salt] | > 2.9 |

Next, values leading:

| IC50 [µM] | Compound |
| --- | --- |
| 2.14 | N#Cc1cc(S(=O)(=O)Nc2nccs2)ccc1Oc1ccc(Br)cc1CO [Example 8, 4-[4-bromo-2-(hydroxymethyl)phenoxy]-3-cyano-N-(1,3-thiazol-2-yl)benzenesulfonamide] |
| 1.38 | CC(C)Oc1ccc(Cl)cc1Oc1ccc(S(=O)(=O)Nc2ncns2)cc1C#N [Example 11, 4-[5-chloro-2-(propan-2-yloxy)phenoxy]-3-cyano-N-(1,2,4-thiadiazol-5-yl)benzenesulfonamide diethylamine salt] |
| 1.27 | N#Cc1cc(S(=O)(=O)Nc2ncns2)ccc1Oc1ccc(Cl)cc1 [Example 13, 4-(4-chlorophenoxy)-3-cyano-N-(1,2,4-thiadiazol-5-yl)benzenesulfonamide diethylamine salt] |
| 0.354 | CCOc1cc(Cl)ccc1Oc1ccc(S(=O)(=O)Nc2ncns2)cc1C#N [Example 12, 4-(4-chloro-2-ethoxyphenoxy)-3-cyano-N-(1,2,4-thiadiazol-5-yl)benzenesulfonamide] |
| 0.141 | N#Cc1cc(S(=O)(=O)Nc2nccs2)ccc1Oc1ccc(CO)cc1F [Example 7, 3-cyano-4-[2-fluoro-4-(hydroxymethyl)phenoxy]-N-(1,3-thiazol-2-yl)benzenesulfonamide, diethylamine salt] |
| 0.069 | CCc1cc(F)ccc1Oc1ccc(S(=O)(=O)Nc2ncns2)cc1I [Example 3, 4-(2-ethyl-4-fluorophenoxy)-3-iodo-N-(1,2,4-thiadiazol-5-yl)benzenesulfonamide] |
| 0.064 | CCc1cc(F)ccc1Oc1ccc(S(=O)(=O)Nc2ncns2)cc1CC [Example 2, 3-ethyl-4-(2-ethyl-4-fluorophenoxy)-N-(1,2,4-thiadiazol-5-yl)benzenesulfonamide diethylamine salt] |
| 0.058 | N#Cc1ccc(Oc2ccc(S(=O)(=O)Nc3nccs3)cc2C#N)cc1Cl [Example 1, 4-(3-chloro-4-cyanophenoxy)-3-cyano-N-(1,3-thiazol-2-yl)benzenesulfonamide] |

same assay, conditions: inhibition of [14C]-uric acid (30 nM) uptake into CHO#8 cells; compound 0 to 10 μM; 4 parameter logistic fit

| Compound | IC50 [µM] |
| --- | --- |
| 3-chloro-4-(4-chlorophenoxy)-N-(1,2,4-thiadiazol-5-yl)benzenesulfonamide diethylamine salt [Example 62] | 0.722 |
| 5-chloro-4-(3,4-difluorophenoxy)-2-fluoro-N-(1,3-thiazol-4-yl)benzenesulfonamide [compound 230] | 0.747 |
